In the OligoGym collection:
HELM strings list units from the 5' end as sugar, base in round brackets, then linkage (d deoxyribose, r ribose, m 2'-O-methyl, p phosphodiester). Strings are as the collection lists them; they lack the last nucleoside at the 3' end of the tested compound. [moe] = 2'-O-(2-methoxyethyl) (MOE); [sp] = phosphorothioate linkage; [m5C] = 5-methylcytosine

Target: UBE3A-ATS
Assay: mouse, dose not given
Conditions: ASO

## RNA1{[moe]([m5C])[sp].[moe](G)p.[moe](T)p.[moe](G)p.[moe](A)p.[moe](G)p.d([m5C])[sp].d(T)[sp].d(A)[sp].d(T)[sp].d([m5C])[sp].d(T)[sp].d(G)[sp].d(T)[sp].d(A)[sp].d([m5C])[sp].[moe](A)p.[moe](A)[sp].[moe](A)}$$$$ (last 3' nucleoside missing)
  3 h FOB score: 1 score 0-7

## RNA1{[moe]([m5C])[sp].[moe](G)p.[moe](T)p.[moe](G)p.[moe](A)p.d(G)[sp].d([m5C])[sp].d(T)[sp].d(A)[sp].d(T)[sp].d([m5C])[sp].d(T)[sp].d(G)[sp].d(T)[sp].d(A)[sp].[moe]([m5C])p.[moe](A)p.[moe](A)[sp].[moe](A)}$$$$ (last 3' nucleoside missing)
  3 h FOB score: 3.2 score 0-7

## RNA1{[moe]([m5C])[sp].[moe](G)p.[moe](T)p.[moe](G)p.d(A)[sp].d(G)[sp].d([m5C])[sp].d(T)[sp].d(A)[sp].d(T)[sp].d([m5C])[sp].d(T)[sp].d(G)[sp].d(T)[sp].[moe](A)p.[moe]([m5C])p.[moe](A)p.[moe](A)[sp].[moe](A)}$$$$ (last 3' nucleoside missing)
  3 h FOB score: 4 score 0-7

## RNA1{[moe]([m5C])[sp].[moe](G)p.[moe](T)p.[moe](T)p.[moe](A)p.d(T)[sp].d(T)[sp].d([m5C])[sp].d(A)[sp].d(G)[sp].d(T)[sp].d([m5C])[sp].d(T)[sp].d([m5C])[sp].d(A)[sp].[moe](G)p.[moe](G)p.[moe](G)[sp].[moe](A)}$$$$ (last 3' nucleoside missing)
  3 h FOB score: 4.5 score 0-7

## RNA1{[moe]([m5C])[sp].[moe](G)p.[moe](T)p.[moe]([m5C])p.[moe](T)p.d(T)[sp].d([m5C])[sp].d([m5C])[sp].d([m5C])[sp].d(G)[sp].d([m5C])[sp].d(A)[sp].d([m5C])[sp].d([m5C])[sp].d(A)[sp].[moe](T)p.[moe](G)p.[moe]([m5C])[sp].[moe](A)}$$$$ (last 3' nucleoside missing)
  3 h FOB score: 2 score 0-7

## RNA1{[moe]([m5C])[sp].[moe](G)p.[moe]([m5C])p.[moe](A)[sp].d(A)[sp].d(T)[sp].d(G)[sp].d(T)[sp].d(A)[sp].d(T)[sp].d([m5C])[sp].d(A)[sp].[moe](G)p.[moe](G)p.[moe]([m5C])p.[moe](A)[sp].[moe](A)}$$$$ (last 3' nucleoside missing)
  3 h FOB score: 1 score 0-7

## RNA1{[moe]([m5C])[sp].[moe](G)p.[moe]([m5C])p.[moe](A)p.[moe](A)[sp].d(T)[sp].d(G)[sp].d(T)[sp].d(A)[sp].d(T)[sp].d([m5C])[sp].d(A)[sp].d(G)[sp].[moe](G)p.[moe]([m5C])p.[moe](A)[sp].[moe](A)}$$$$ (last 3' nucleoside missing)
  3 h FOB score: 2 score 0-7

## RNA1{[moe]([m5C])[sp].[moe](G)p.[moe]([m5C])p.[moe](A)p.[moe](A)p.[moe](T)[sp].d(G)[sp].d(T)[sp].d(A)[sp].d(T)[sp].d([m5C])[sp].d(A)[sp].d(G)[sp].d(G)[sp].[moe]([m5C])p.[moe](A)[sp].[moe](A)}$$$$ (last 3' nucleoside missing)
  3 h FOB score: 3 score 0-7

## RNA1{[moe]([m5C])[sp].[moe](G)p.[moe]([m5C])p.[moe](A)p.[moe](A)p.d(T)[sp].d(G)[sp].d(T)[sp].d(A)[sp].d(T)[sp].d([m5C])[sp].d(A)[sp].d(G)[sp].d(G)[sp].d([m5C])[sp].[moe](A)p.[moe](A)p.[moe]([m5C])[sp].[moe](A)}$$$$ (last 3' nucleoside missing)
  3 h FOB score: 4 score 0-7

## RNA1{[moe]([m5C])[sp].[moe](T)p.[moe](A)p.[moe](A)p.[moe](A)p.d(A)[sp].d(T)[sp].d([m5C])[sp].d([m5C])[sp].d(A)[sp].d(T)[sp].d(T)[sp].d(T)[sp].d(G)[sp].d(T)[sp].[moe]([m5C])p.[moe]([m5C])p.[moe](A)[sp].[moe](G)}$$$$ (last 3' nucleoside missing)
  3 h FOB score: 3.3 score 0-7

## RNA1{[moe]([m5C])[sp].[moe](T)p.[moe](A)p.[moe](A)p.[moe]([m5C])p.d(T)[sp].d(T)[sp].d(T)[sp].d(A)[sp].d(T)[sp].d(A)[sp].d(G)[sp].d(T)[sp].d(G)[sp].d(T)[sp].[moe](G)p.[moe](G)p.[moe](A)[sp].[moe](T)}$$$$ (last 3' nucleoside missing)
  3 h FOB score: 5 score 0-7

## RNA1{[moe]([m5C])[sp].[moe](T)p.[moe](A)p.[moe](G)p.[moe](G)p.d([m5C])[sp].d(A)[sp].d(G)[sp].d([m5C])[sp].d(T)[sp].d([m5C])[sp].d(T)[sp].d(T)[sp].d(T)[sp].d(G)[sp].[moe](T)p.[moe](A)p.[moe](G)[sp].[moe](G)}$$$$ (last 3' nucleoside missing)
  3 h FOB score: 0.3 score 0-7

## RNA1{[moe]([m5C])[sp].[moe](T)p.[moe](A)p.[moe](T)p.[moe]([m5C])p.d(A)[sp].d(A)[sp].d(G)[sp].d(G)[sp].d([m5C])[sp].d(T)[sp].d(G)[sp].d(T)[sp].d(T)[sp].d(A)[sp].[moe](T)p.[moe](T)p.[moe](G)[sp].[moe](G)}$$$$ (last 3' nucleoside missing)
  3 h FOB score: 4 score 0-7

## RNA1{[moe]([m5C])[sp].[moe](T)p.[moe](A)p.[moe](T)p.[moe]([m5C])p.d(T)[sp].d(G)[sp].d(T)[sp].d(A)[sp].d([m5C])[sp].d(A)[sp].d(A)[sp].d(A)[sp].d(A)[sp].d(T)[sp].[moe](G)p.[moe](G)p.[moe](A)[sp].[moe](A)}$$$$ (last 3' nucleoside missing)
  3 h FOB score: 0 score 0-7

## RNA1{[moe]([m5C])[sp].[moe](T)p.[moe](G)p.[moe](A)p.[moe](G)p.d(T)[sp].d([m5C])[sp].d(A)[sp].d(G)[sp].d(T)[sp].d([m5C])[sp].d([m5C])[sp].d(A)[sp].d(A)[sp].d(A)[sp].[moe](T)p.[moe](G)p.[moe](A)[sp].[moe](A)}$$$$ (last 3' nucleoside missing)
  3 h FOB score: 0.5 score 0-7

## RNA1{[moe]([m5C])[sp].[moe](T)p.[moe](G)p.[moe](A)p.[moe](T)p.[moe]([m5C])p.d(A)[sp].d([m5C])[sp].d(A)[sp].d(T)[sp].d(T)[sp].d(A)[sp].d([m5C])[sp].d([m5C])[sp].d([m5C])[sp].d(A)[sp].[moe](T)p.[moe]([m5C])[sp].[moe]([m5C])}$$$$ (last 3' nucleoside missing)
  3 h FOB score: 0 score 0-7

## RNA1{[moe]([m5C])[sp].[moe](T)p.[moe](G)p.[moe](A)p.[moe](T)p.d([m5C])[sp].d(A)[sp].d([m5C])[sp].d(A)[sp].d(T)[sp].d(T)[sp].d(A)[sp].d([m5C])[sp].d([m5C])[sp].d([m5C])[sp].[moe](A)p.[moe](T)p.[moe]([m5C])[sp].[moe]([m5C])}$$$$ (last 3' nucleoside missing)
  3 h FOB score: 1 score 0-7

## RNA1{[moe]([m5C])[sp].[moe](T)p.[moe](G)p.[moe](A)p.d(T)[sp].d([m5C])[sp].d(A)[sp].d([m5C])[sp].d(A)[sp].d(T)[sp].d(T)[sp].d(A)[sp].d([m5C])[sp].d([m5C])[sp].[moe]([m5C])p.[moe](A)p.[moe](T)p.[moe]([m5C])[sp].[moe]([m5C])}$$$$ (last 3' nucleoside missing)
  3 h FOB score: 0 score 0-7

## RNA1{[moe]([m5C])[sp].[moe](T)p.[moe](G)p.[moe](G)p.[moe](T)p.d(A)[sp].d(G)[sp].d(G)[sp].d(A)[sp].d(T)[sp].d([m5C])[sp].d(T)[sp].d(A)[sp].d(T)[sp].d(G)[sp].[moe](G)p.[moe]([m5C])p.[moe](A)[sp].[moe](G)}$$$$ (last 3' nucleoside missing)
  3 h FOB score: 2.3 score 0-7

## RNA1{[moe]([m5C])[sp].[moe](T)p.[moe](G)p.[moe](T)p.[moe](A)p.d(A)[sp].d(G)[sp].d(G)[sp].d(T)[sp].d(G)[sp].d(A)[sp].d(T)[sp].d(A)[sp].d(T)[sp].d([m5C])[sp].[moe](T)p.[moe](A)p.[moe](T)[sp].[moe](A)}$$$$ (last 3' nucleoside missing)
  3 h FOB score: 3 score 0-7

## RNA1{[moe]([m5C])[sp].[moe](T)p.[moe](G)p.[moe](T)p.[moe](A)p.d(A)[sp].d(G)[sp].d(T)[sp].d(A)[sp].d(T)[sp].d(A)[sp].d(G)[sp].d(A)[sp].d(T)[sp].d(G)[sp].[moe]([m5C])p.[moe]([m5C])p.[moe](T)[sp].[moe]([m5C])}$$$$ (last 3' nucleoside missing)
  3 h FOB score: 3.2 score 0-7

## RNA1{[moe]([m5C])[sp].[moe](T)p.[moe](G)p.[moe](T)p.[moe](A)p.d(T)[sp].d(A)[sp].d(G)[sp].d(T)[sp].d(T)[sp].d(T)[sp].d(A)[sp].d([m5C])[sp].d([m5C])[sp].d([m5C])[sp].[moe](A)p.[moe](G)p.[moe](G)[sp].[moe]([m5C])}$$$$ (last 3' nucleoside missing)
  3 h FOB score: 0 score 0-7

## RNA1{[moe]([m5C])[sp].[moe](T)p.[moe](G)p.[moe]([m5C])p.[moe](T)p.[moe](T)p.d([m5C])[sp].d(A)[sp].d([m5C])[sp].d([m5C])[sp].d(A)[sp].d(T)[sp].d(T)[sp].d(T)[sp].d(T)[sp].d(G)[sp].[moe](A)p.[moe]([m5C])[sp].[moe]([m5C])}$$$$ (last 3' nucleoside missing)
  3 h FOB score: 0 score 0-7

## RNA1{[moe]([m5C])[sp].[moe](T)p.[moe](G)p.[moe]([m5C])p.[moe](T)p.[moe]([m5C])p.d(A)[sp].d(G)[sp].d(T)[sp].d(T)[sp].d(A)[sp].d(G)[sp].d(G)[sp].d(T)[sp].d(T)[sp].d(A)[sp].[moe](G)p.[moe](T)[sp].[moe](G)}$$$$ (last 3' nucleoside missing)
  3 h FOB score: 3 score 0-7

## RNA1{[moe]([m5C])[sp].[moe](T)p.[moe](G)p.[moe]([m5C])p.[moe](T)p.d(T)[sp].d(A)[sp].d(T)[sp].d(G)[sp].d(T)[sp].d(A)[sp].d(G)[sp].d([m5C])[sp].d(T)[sp].d([m5C])[sp].[moe](A)p.[moe](G)p.[moe]([m5C])[sp].[moe](T)}$$$$ (last 3' nucleoside missing)
  3 h FOB score: 1 score 0-7

## RNA1{[moe]([m5C])[sp].[moe](T)p.[moe](G)p.[moe]([m5C])p.[moe](T)p.d(T)[sp].d([m5C])[sp].d(A)[sp].d([m5C])[sp].d([m5C])[sp].d(A)[sp].d(T)[sp].d(T)[sp].d(T)[sp].d(T)[sp].[moe](G)p.[moe](A)p.[moe]([m5C])[sp].[moe]([m5C])}$$$$ (last 3' nucleoside missing)
  3 h FOB score: 1.3 score 0-7
